Assay results taken from patent US20220409633A1, “COMPOSITION COMPRISING BUDESONIDE FOR OPHTHALMIC USE” (NTC S.R.L., priority 2019, published 2022).

Columns and labels:
[1] = cited from earlier work
[2] = Cumulative distribution Q3% (HELOS Particle Size Analysis) of budesonide powder; format: physicochemical; details: FIG. 4
Description: FIGS. 3 and 4 respectively show a diagram of the Cumulative Distribution Q3% (HELOS Particle Size Analysis) with respect to the particle size in μm, and a table corresponding to said diagram of the Cumulative Distribution with standard deviation, according to a possible embodiment of the budesonide that can be used in this invention. […] In this range of there is half the total weight, almost as in the remaining […]; Said budesonide is obtained and supplied by the manufacturer already in this form according to an average size distribution shown in the diagram of FIG. 3, and in tabular form in FIG. 4, which show the cumulative distribution Q3% with respect to the particle size in μm.

[3] = Average size distribution of micronized budesonide powder by laser diffractometer; format: physicochemical; details: FIG. 5
Description: Preferably, said budesonide has an average size distribution shown in the diagram of FIG. 5, and in tabular form in Table A.1 below (in which the numerical values are expressed in μm).
In Table A.1, the parameters Dx(10), Dx(50) and Dx(90) respectively indicate that 10%, 50% and 90% by weight of the particles analysed have a dimensional distribution below the numerical values (expressed in μm) indicated in such Table.
For example, the average size distribution could be determined by means of a Spraytec laser diffractometer (Malvern Panalytics, UK), preferably using the instrumental operating parameters shown in Table A.2 below, where the parameters not specified in such table were maintained as per default specifications of the laser diffractometer.

Cumulative Distribution Q3% ([2]; x0/μm=2,50): 90,32% | Cumulative Distribution Q3% ([2]; x0/μm=3.75): 99,01% | Dx(10) ([3]; 10% by weight of particles below this size): 1.10 μm | Dx(50) ([3]; 50% by weight of particles below this size): 2.02 μm | Dx(90) ([3]; 90% by weight of particles below this size): 3.68 μm
Structure (SMILES): CCCC1O[C@@H]2C[C@H]3[C@@H]4CCC5=CC(=O)C=C[C@]5(C)[C@H]4[C@@H](O)C[C@]3(C)[C@]2(C(=O)CO)O1 (stereo partly drawn) [budesonide]
solubility in water [1]: not water-soluble
